# Assay results taken from patent US20250205193A1, “THERAPEUTIC COMPOUND AND SALTS” (Regents of the University of Minnesota, priority 2022, published 2025).
# Like-named read-outs stand apart in the source and are kept apart here.
# Columns and labels:
# 67NR cells = test: Seahorse XFe96 respiratory experiments in permeabilized cells for pyruvate driven respiration (67NR); type: cell-based; details: read-out: inhibits pyruvate driven respiration, IC50
# Description: 4T1 cells were seeded (20,000 cells/well) onto Seahorse XFe96 well plates and incubated overnight in growth media at 37° C. and 5% CO2 for adherence. […] For pyruvate driven respiration experiments, test compound was injected in port A, followed by rPFO (1 nM) in port B, followed by respective substrate cocktails (FCCP stimulated) in port C, and rotenone and antimycin A (0.5 μM) in port D. Final substrate concentrations for specific tests were as follows: (5 mM pyruvate, 0.5 mM malate, 2 mM dichloroacetate (DCA); 10 mM glutamate, 2 mM DCA; 2 μM rotenone).
# mice = test: Single dose acute toxicity study; type: in vivo; details: single dose 40 mg/kg PO
# Description: Additionally, a single dose acute toxicity study (40 mg/kg PO, q.d.) was carried out.
# Balb-C mice = test: Maximum tolerated dose study; type: in vivo; details: up to 40 mg/kg PO, q.d.
# Description: A maximum tolerated dose study was conducted in Balb-C mice.
# [1] = for T1/2: PO 5.00 mg/kg; for F: in vivo, po, 5 mg/kg
# Description: (§1) The pharmacokinetics and oral bioavailability of the compound of formula (I) were investigated in mouse following single intravenous and oral gavage.
# in vivo = details: mouse
# Description: as §1
compound,measurement,setting,value
CN(Cc1ccc(C(F)(F)F)cc1)c1ccc2cc(C(=O)O)c(=O)oc2c1 [MN-D7],IC50,67NR cells,17.8 ± 4.9 nM
same,toxicity upon examination of internal organs,mice,did not cause any toxicity issues
same,body weight gains and grooming patterns,Balb-C mice,normal body weight gains and grooming patterns
same,tolerability,Balb-C mice,well tolerated
same,HL_Lambda T1/2,"[1]; G1-Male, IV 1.0 mg/kg",3.65 h
same,T1/2,[1]; G2-Female,4.41 h
same,T1/2,[1]; G2-Male,4.04 h
same,F,"[1]; female, mouse",123.84%
same,F,"[1]; male, mouse",124.96%
same,mean terminal half-life,"[1]; mouse, female, IV dose",3.15 h
same,AUC(0-inf),"in vivo; female, iv, 1 mg/kg",626 ng·h/mL
same,AUC(0-t),"in vivo; female, iv, 1 mg/kg",552 ng·h/mL
same,C0,"in vivo; female, iv, 1 mg/kg",226 ng/mL
same,Cmax,"in vivo; female, iv, 1 mg/kg",200 ng/mL
same,MRT inf,"in vivo; female, iv, 1 mg/kg",4.34 h
same,MRT last,"in vivo; female, iv, 1 mg/kg",2.95 h
same,Tmax,"in vivo; female, iv, 1 mg/kg",0.08 h
same,clearance,"in vivo; female, iv, 1 mg/kg",26.6 mL/min/kg
same,half-life,"in vivo; female, iv, 1 mg/kg",3.15 h
same,Vd,"in vivo; female, iv, 1 mg/kg, Vss_obs Vss",6.92 L/kg
same,Vd,"in vivo; female, iv, 1 mg/kg, Vz_obs Vz",7.26 L/kg
same,bioavailability,"in vivo; female, po",~124%
same,half-life,"in vivo; female, po",4.41 h
same,AUC(0-inf),"in vivo; female, po, 5 mg/kg",3480 ng·h/mL
same,AUC(0-t),"in vivo; female, po, 5 mg/kg",3420 ng·h/mL
same,Cmax,"in vivo; female, po, 5 mg/kg",1450 ng/mL
same,MRT inf,"in vivo; female, po, 5 mg/kg",4.39 h
same,MRT last,"in vivo; female, po, 5 mg/kg",3.88 h
same,Tmax,"in vivo; female, po, 5 mg/kg",0.08 h
same,half-life,"in vivo; male, iv",3.65 h
same,AUC(0-inf),"in vivo; male, iv, 1 mg/kg",486 ng·h/mL
same,AUC(0-t),"in vivo; male, iv, 1 mg/kg",413 ng·h/mL
same,C0,"in vivo; male, iv, 1 mg/kg",185 ng/mL
same,Cmax,"in vivo; male, iv, 1 mg/kg",160 ng/mL
same,MRT inf,"in vivo; male, iv, 1 mg/kg",4.97 h
same,MRT last,"in vivo; male, iv, 1 mg/kg",3.17 h
same,Tmax,"in vivo; male, iv, 1 mg/kg",0.08 h
same,clearance,"in vivo; male, iv, 1 mg/kg",34.3 mL/min/kg
same,Vd,"in vivo; male, iv, 1 mg/kg, Vss_obs Vss",10.2 L/kg
same,Vd,"in vivo; male, iv, 1 mg/kg, Vz_obs Vz",10.8 L/kg
same,bioavailability,"in vivo; male, po",~125%
same,half-life,"in vivo; male, po",4.04 h
same,AUC(0-inf),"in vivo; male, po, 5 mg/kg",2610 ng·h/mL
same,AUC(0-t),"in vivo; male, po, 5 mg/kg",2580 ng·h/mL
same,Cmax,"in vivo; male, po, 5 mg/kg",890 ng/mL
same,MRT inf,"in vivo; male, po, 5 mg/kg",4.33 h
same,MRT last,"in vivo; male, po, 5 mg/kg",4.07 h
same,Tmax,"in vivo; male, po, 5 mg/kg",0.25 h
